Measured values from US9945862B2, “Biomarkers for predicting and assessing responsiveness of thyroid and kidney cancer subjects to lenvatinib compounds” (Eisai R&D Management Co., Ltd., priority 2011, dated 2018).

System: differentiated thyroid cancer patients
Test: Best overall response / tumor response in differentiated thyroid cancer patients treated in phase II with E7080, by tumor mutation status
Assay type: in vivo, human
Text: This experiment was directed at identifying amino acid mutations that are useful in predicting whether subjects respond to treatment with E7080 using three criteria of response: best overall response, tumor shrinkage, and progression free survival.
Tissue samples were obtained at surgery before the patients had received any therapy comprising E7080 and were routinely processed with formalin fixed, paraffin embedded tissues (FFPE). The protocol that was used was approved by the institutional review board, and informed consent was obtained from each subject. Tumor tissue samples from 27 patients, for which tissues were available, were used for mutation analysis. DNA was isolated from FFPE tumor blocks collected from patients participating in the trial. Genomic DNA was extracted from two to five 10 micron unstained sections by deparaffinization and Qiagen DNA Mini Kit Tissue Protocol with minor modification. For mutation detection, the SEQUENOM® (San Diego, Calif.) platform and the OncoCarta™ Panel v1.0 and OncoCarta™ Panel v3.0 were used (see, www.sequenom.com/Files/Genetic-Analysis—Graphics/All-Application—PDFs/AssayExplorer2010_1110-Web/). Sequenom's OncoCarta™ Panels are a set of pre-designed and pre-validated assays for efficient mutation screening. The OncoCarta™ Panel v1.0 genes and the number of mutations (in parentheses) are: ABL1 (14); AKT1 (7); AKT2 (2); BRAF (25); CDK4 (2); EGFR (40); ERBB2 (9); FGFR1 (2); FGRF3 (7); FLT3 (3); HRAS (10); JAK2 (1); KIT (32); KRAS (16); MET (5); NRAS (19); PDGFRA (11); PIK3CA (14); and RET (6). The OncoCarta™ Panel v3.0 genes and the number of mutations (in parentheses) are: ABL1 (2) AKT1 (1); APC (12); BRAF (19); CDKN2A (7); CSF1R (6); CTTNB1 (28); EGFR (32); ERBB2 (2); FLT3 (3); HRAS (2); JAK3 (3); KIT (3); KRAS (5); MET (6); MLH1 (1); MYC (6); PDGFRA (11); PIK3CA (4); PTEN (14); RB1 (11); RET (13); SRC (1); STK11 (12); P53 (7); and VH1 (7). […]
DNA was amplified using the OncoCarta™ PCR primer pools, unincorporated nucleotides were inactivated by shrimp alkaline phosphatase (SAP), and a single base extension reaction was performed using extension primers that hybridize immediately adjacent to the mutations and a custom mixture of nucleotides. Salts were removed by the addition of a cation exchange resin. Multiplexed reactions were spotted onto the SpectroChipII, and mutations, if present, were resolved by MALDI-TOF on the Compact Mass Spectrometer (Sequenom®, San Diego, Calif.). The OncoCarta™ Panel v1.0 (Sequenom®, San Diego, Calif.) consists of 24 pools of primer pairs and 24 pools of extension primers, and has the capacity to detect 225 mutations in 19 genes. The OncoCarta™ Panel v 3.0 consists of 24 pools of primer pairs and 24 pools of extension primers, and has the capacity to detect 218 mutations in 26 genes. Each pool consists of 5-9 primer pairs in the PCR reaction. Two types of assays have been designed in the OncoCarta panel, referred to as simple and complex. The simple assays are those in which a single assay is able to detect the amino acid changes at that codon. The complex assays are those that require more than one assay to identify codon changes or deletions and insertion, and thus are able to detect multiple different amino acid substitutions or deletions. An example of a complex assay involves the use of the KRAS_1 and KRAS_2 assays, which interrogates 2 different nucleotide positions within codon 12 and together identify all codon 12 amino acid changes. In the KRAS G12R mutation, the mutant allele has the codon CGT (Arginine) in contrast to the wild type allele which has the GGT (Glycine) codon. […]

[1] = BRAF.KRAS.NRAS (any of gene) MU
[2] = BRAF.KRAS.NRAS (any of gene) WT
[3] = BRAF.KRAS.NRAS.VHL (any of gene) MU
[4] = BRAF.KRAS.NRAS.VHL (any of gene) WT

COc1cc2nccc(Oc3ccc(NC(=O)NC4CC4)c(Cl)c3)c2cc1C(N)=O [E7080, 4-(3-chloro-4-(cyclopropylaminocarbonyl)aminophenoxy)-7-methoxy-6-quinolinecarboxamide]
Number of patients with BOR PD [1]: 0 | Number of patients with BOR PR [1]: 10 | Number of patients with BOR SD [1]: 1 | Number of patients with BOR PD [2]: 2 | Number of patients with BOR PR [2]: 3 | Number of patients with BOR SD [2]: 6 | Number of patients with BOR PD [3]: 1 | Number of patients with BOR PR [3]: 10 | Number of patients with BOR SD [3]: 1 | Number of patients with BOR PD [4]: 1 | Number of patients with BOR PR [4]: 3 | Number of patients with BOR SD [4]: 6 | Number of patients with BOR PD (BRAF.KRAS.VHL (any of gene) MU): 2 | Number of patients with BOR PR (BRAF.KRAS.VHL (any of gene) MU): 8 | Number of patients with BOR SD (BRAF.KRAS.VHL (any of gene) MU): 0 | Number of patients with BOR PD (BRAF.KRAS.VHL (any of gene) WT): 0 | Number of patients with BOR PR (BRAF.KRAS.VHL (any of gene) WT): 8 | Number of patients with BOR SD (BRAF.KRAS.VHL (any of gene) WT): 5 | Number of patients with BOR PD (BRAF.NRAS (any of gene) MU): 0 | Number of patients with BOR PR (BRAF.NRAS (any of gene) MU): 8 | Number of patients with BOR SD (BRAF.NRAS (any of gene) MU): 1 | Number of patients with BOR PD (BRAF.NRAS (any of gene) WT): 2 | Number of patients with BOR PR (BRAF.NRAS (any of gene) WT): 5 | Number of patients with BOR SD (BRAF.NRAS (any of gene) WT): 6 | Number of patients with BOR PD (BRAF.VHL (any of gene) MU): 2 | Number of patients with BOR PR (BRAF.VHL (any of gene) MU): 6 | Number of patients with BOR SD (BRAF.VHL (any of gene) MU): 0 | Number of patients with BOR PD (BRAF.VHL (any of gene) WT): 0 | Number of patients with BOR PR (BRAF.VHL (any of gene) WT): 10 | Number of patients with BOR SD (BRAF.VHL (any of gene) WT): 5 | Number of patients with BOR PD (KRAS.NRAS (any of gene) MU): 0 | Number of patients with BOR PR (KRAS.NRAS (any of gene) MU): 8 | Number of patients with BOR SD (KRAS.NRAS (any of gene) MU): 0 | Number of patients with BOR PD (KRAS.NRAS (any of gene) WT): 2 | Number of patients with BOR PR (KRAS.NRAS (any of gene) WT): 5 | Number of patients with BOR SD (KRAS.NRAS (any of gene) WT): 7 | Number of patients with BOR PD (KRAS.NRAS.VHL (any of gene) MU): 1 | Number of patients with BOR PR (KRAS.NRAS.VHL (any of gene) MU): 8 | Number of patients with BOR SD (KRAS.NRAS.VHL (any of gene) MU): 0 | Number of patients with BOR PD (KRAS.NRAS.VHL (any of gene) WT): 1 | Number of patients with BOR PR (KRAS.NRAS.VHL (any of gene) WT): 5 | Number of patients with BOR SD (KRAS.NRAS.VHL (any of gene) WT): 7 | Patients with partial response (PR) (patients with either an NRAS or KRAS mutation): 8 out of 8 | Patients with partial response (PR) (patients without mutations in NRAS and KRAS): 5 out of 14 | Clinical outcome in differentiated thyroid cancer patients (phase II): Tumor response and prolonged disease stabilization were observed
